Results published in DBAASP.
≈ marks a conversion by molar mass, not a printed value. Where “and” joins values, the source holds several entries; their conditions need not be identical. Equal entries are not always repeated.

Legend:
Assay in all cases: ≥ marks a high value that may be exact or a test limit, other limits are often not marked, values filed in µg/mL are converted to µM
[1] = tested on: Streptococcus mutans ATCC UA159
[2] = tested on: Candida albicans ATCC 5314
[3] = tested on: Streptococcus sanguinis ATCC 10556
Staphylococcus aureus = tested on: Staphylococcus aureus
[4] = tested on: Staphylococcus aureus ATCC 25923
[5] = tested on: Staphylococcus aureus ATCC 29213
[6] = tested on: Salmonella enterica subsp. enterica serovar Typhimurium C77-31
[7] = tested on: Salmonella enterica subsp. enterica serovar Pullorum C79-13
[8] = tested on: Salmonella enterica subsp. enterica serovar Typhimurium ATCC 14028
[9] = tested on: Pseudomonas aeruginosa ATCC 10419
Escherichia coli UB1005 = tested on: Escherichia coli UB1005
[10] = tested on: Enterococcus faecalis ATCC 29212
Escherichia coli 078 = tested on: Escherichia coli 078
[11] = tested on: Escherichia coli ATCC 25922
[12] = tested on: Pseudomonas aeruginosa ATCC 21625
[13] = tested on: Staphylococcus epidermidis ATCC 12228
Escherichia coli ER2566 = tested on: Escherichia coli ER2566
[14] = tested on: Escherichia coli CMCC 44102
[15] = tested on: Pseudomonas aeruginosa ATCC 21630
[16] = tested on: Escherichia coli CVCC 1515
[17] = tested on: Pseudomonas aeruginosa ATCC 27853
Escherichia coli K88 = tested on: Escherichia coli K88
[18] = tested on: Bacillus subtilis ATCC 11060
[19] = tested on: Acinetobacter calcoaceticus ATCC 23055
[20] = tested on: Listeria monocytogenes NCTC 7973
[21] = tested on: Pseudomonas aeruginosa H103
[22] = tested on: Pseudomonas aeruginosa Z61
[23] = tested on: Staphylococcus aureus SAP 0017
[24] = tested on: Salmonella enterica subsp. enterica serovar Typhimurium ATCC 14028s
[25] = tested on: Stenotrophomonas maltophilia ATCC 13637
[26] = tested on: Enterobacter cloacae ATCC 13047
Candida albicans CAN105 = tested on: Candida albicans CAN105
[27] = tested on: Pseudomonas aeruginosa K799
[28] = tested on: Staphylococcus epidermidis
[29] = tested on: Staphylococcus haemolyticus
Corynebacterium xerosis = tested on: Corynebacterium xerosis
[30] = tested on: Burkholderia cepacia ATCC 25416
[31] = tested on: Pseudomonas aeruginosa H547
Escherichia coli O111:B4 = tested on: Escherichia coli O111:B4
[32] = tested on: Staphylococcus aureus K147
[33] = tested on: Pseudomonas aeruginosa H744
[34] = tested on: Pseudomonas aeruginosa H187
[35] = tested on: Streptococcus pyogenes ATCC 19615
[36] = tested on: Pseudomonas aeruginosa H374
[37] = tested on: Streptococcus pneumoniae ATCC 49619
[38] = tested on: Staphylococcus epidermidis ATCC 51625
[39] = tested on: Staphylococcus aureus ATCC 33591
[40] = tested on: Klebsiella aerogenes ATCC 13048
[41] = tested on: Enterococcus faecium ATCC 700221
[42] = tested on: Acinetobacter baumannii ATCC 17978D-5
[43] = tested on: Pseudomonas aeruginosa ATCC 19660

CC[C@H](C)[C@H](NC(=O)[C@H](CCCCN)NC(=O)[C@H](CCCN=C(N)N)NC(=O)[C@@H](NC(=O)[C@@H](N)Cc1ccc(O)cc1)[C@@H](C)CC)C(=O)N[C@@H](CCCN=C(N)N)C(=O)N[C@@H](CCCN=C(N)N)C(=O)N[C@@H](Cc1ccccc1)C(=O)N[C@@H](Cc1ccccc1)C(=O)N[C@@H](CCCCN)C(=O)N[C@@H](CCCCN)C(=O)N[C@@H](CCCN=C(N)N)C(=O)N[C@@H](Cc1ccccc1)C(=O)N[C@@H](CCCCN)C(=O)N[C@@H](Cc1ccccc1)C(=O)N[C@@H](CCCN=C(N)N)C(=O)N[C@@H](CCCCN)C(=O)N[C@@H](CCCCN)C(N)=O [YIRKIRRFFKKRFKFRKK]
MIC [1]: 6.28 µM (≈ 16 µg/mL)
MIC [2]: 12.6 µM (≈ 32 µg/mL)
MIC [3]: 25.1 µM (≈ 64 µg/mL)
MIC (Staphylococcus aureus): 12.6 µM (≈ 32 µg/mL)
MIC [4]: 25.1 µM (≈ 64 µg/mL)

CC[C@H](C)[C@H](NC(=O)[C@H](CCCCN)NC(=O)[C@H](CCCCN)NC(=O)[C@H](CC(C)C)NC(=O)[C@H](CCCN=C(N)N)NC(=O)[C@H](Cc1c[nH]c2ccccc12)NC(=O)[C@H](CCCN=C(N)N)NC(=O)[C@@H](NC(=O)[C@H](CCCCN)NC(=O)[C@H](Cc1c[nH]c2ccccc12)NC(=O)[C@H](CCCN=C(N)N)NC(=O)[C@H](CC(C)C)NC(=O)[C@H](CCCN=C(N)N)NC(=O)[C@H](CCCN=C(N)N)NC(=O)[C@H](Cc1ccccc1)NC(=O)[C@@H](N)CCCN=C(N)N)[C@@H](C)O)C(=O)N[C@H]1CSSC[C@@H](C(=O)N[C@H](C(N)=O)C(C)C)NC(=O)[C@H](C(C)C)NC(=O)[C@@H]2CSSC[C@H](NC(=O)[C@H](Cc3ccc(O)cc3)NC1=O)C(=O)N[C@@H](CCCN=C(N)N)C(=O)N[C@@H](CCCN=C(N)N)C(=O)N[C@@H](CCCN=C(N)N)C(=O)N[C@@H](Cc1ccccc1)C(=O)N2 [RFRRLRWKTRWRLKKICYCRRRFCVCV]
MIC [5]: 2.01 µM (≈ 7.39 µg/mL)
MIC [6]: 4.01 µM (≈ 14.8 µg/mL)
MIC [7]: 4.01 µM (≈ 14.8 µg/mL)
MIC [8]: 2.01 µM (≈ 7.39 µg/mL)
MIC [9]: 4.01 µM (≈ 14.8 µg/mL)
MIC (Escherichia coli UB1005): 2.01 µM (≈ 7.39 µg/mL)
MIC [10]: 1 µM (≈ 3.69 µg/mL)
MIC (Escherichia coli 078): 4.01 µM (≈ 14.8 µg/mL)
MIC [11]: 1 µM and 2.01 µM
MIC [12]: 4.01 µM (≈ 14.8 µg/mL)
MIC [13]: 2.01 µM (≈ 7.39 µg/mL)
MIC (Escherichia coli ER2566): 1 µM (≈ 3.69 µg/mL)
MIC [14]: 0.515 µM (≈ 1.9 µg/mL)
MIC [15]: 2.01 µM (≈ 7.39 µg/mL)
MIC [16]: 4.01 µM (≈ 14.8 µg/mL)
MIC [17]: 4.01 µM (≈ 14.8 µg/mL)
MIC [4]: 8.02 µM (≈ 29.6 µg/mL)
MIC (Escherichia coli K88): 0.515 µM (≈ 1.9 µg/mL)
MIC [18]: 2.01 µM (≈ 7.39 µg/mL)

CC[C@H](C)[C@H](NC(=O)[C@H](CC(C)C)NC(=O)[C@H](C)NC(=O)[C@@H]1CCCN1C(=O)[C@H](CC(C)C)NC(=O)CNC(=O)[C@@H](NC(=O)[C@@H](NC(=O)[C@H](CC(C)C)NC(=O)[C@@H](NC(=O)[C@H](CCCCN)NC(=O)[C@H](CCCCN)NC(=O)[C@@H](NC(=O)[C@H](C)NC(=O)[C@@H](NC(=O)[C@@H](NC(=O)[C@H](CC(C)C)NC(=O)[C@H](CCCCN)NC(=O)[C@H](CCCCN)NC(=O)[C@@H](NC(=O)[C@H](Cc1ccccc1)NC(=O)[C@H](CO)NC(=O)[C@H](CCCCN)NC(=O)[C@H](Cc1c[nH]c2ccccc12)NC(=O)[C@@H](N)CCCCN)[C@@H](C)CC)[C@@H](C)O)[C@@H](C)O)C(C)C)C(C)C)[C@@H](C)O)[C@@H](C)O)C(=O)N[C@@H](CO)C(=O)O [KWKSFIKKLTTAVKKVLTTGLPALIS]
MIC [19]: 1.39 µM (≈ 4 µg/mL)
MIC [20]: 1.39 µM (≈ 4 µg/mL)
MIC [21]: 1.39 µM (≈ 4 µg/mL)
MIC [22]: 1.04 µM (≈ 3 µg/mL)
MIC (Escherichia coli UB1005): 0.696 µM (≈ 2 µg/mL)
MIC [23]: 2.79 µM (≈ 8 µg/mL)
MIC [10]: 22.3 µM (≈ 64 µg/mL)
MIC [24]: 0.696 µM (≈ 2 µg/mL)
MIC [25]: 1.04 µM (≈ 3 µg/mL)
MIC [26]: 0.696 µM (≈ 2 µg/mL)
MIC (Candida albicans CAN105): 11.1 µM (≈ 32 µg/mL)
MIC [27]: 2.09 µM (≈ 6 µg/mL)
MIC [28]: 5.57 µM (≈ 16 µg/mL)
MIC [29]: 2.79 µM and 5.57 µM
MIC (Corynebacterium xerosis): 0.696 µM (≈ 2 µg/mL)
MIC [30]: 22.3 µM (≈ 64 µg/mL)
MIC [31]: 0.696 µM (≈ 2 µg/mL)
MIC (Escherichia coli O111:B4): 0.696 µM (≈ 2 µg/mL)
MIC [17]: 5.57 µM (≈ 16 µg/mL)
MIC [4]: 2.79 µM (≈ 8 µg/mL)
MIC [32]: 11.1 µM (≈ 32 µg/mL)
MIC [33]: 0.696 µM (≈ 2 µg/mL)
MIC [34]: 5.57 µM (≈ 16 µg/mL)
MIC [35]: 2.79 µM (≈ 8 µg/mL)
MIC [36]: 0.696 µM (≈ 2 µg/mL)

CC[C@H](C)[C@H](NC(=O)[C@H](CCCCN)NC(=O)[C@@H]1CCCN1C(=O)[C@@H]1CCCN1C(=O)[C@H](CC(C)C)NC(=O)[C@H](CCCCN)NC(=O)[C@@H]1CCCN1C(=O)[C@@H]1CCCN1C(=O)[C@H](Cc1ccccc1)NC(=O)[C@H](Cc1ccccc1)NC(=O)[C@@H]1CCCN1C(=O)[C@@H]1CCCN1C(=O)[C@@H]1CCCN1C(=O)[C@H](CCCCN)NC(=O)[C@@H]1CCCN1C(=O)[C@H](CCCCN)NC(=O)[C@@H]1CCCN1C(=O)[C@H](CC(C)C)NC(=O)[C@H](Cc1ccc(O)cc1)NC(=O)[C@@H]1CCCN1C(=O)[C@@H]1CCCN1C(=O)[C@H](CCCCN)NC(=O)[C@@H]1CCCN1C(=O)[C@H](CCCCN)NC(=O)[C@H](CCCCN)NC(=O)[C@@H](N)CCCCN)C(=O)O [KKKPKPPYLPKPKPPPFFPPKLPPKI]
MIC [37]: 21.3 µM (≈ 64 µg/mL)
MIC [38]: 21.3 µM (≈ 64 µg/mL)
MIC [39]: 21.3 µM (≈ 64 µg/mL)
MIC [40]: 21.3 µM (≈ 64 µg/mL)
MIC [17]: > 21.3 µM
MIC [41]: 21.3 µM (≈ 64 µg/mL)
MIC [42]: 21.3 µM (≈ 64 µg/mL)
MIC [43]: 21.3 µM (≈ 64 µg/mL)
